Measurements: patent publication US10654859B2, “Methanesulfonate polymorph of 5-type phosphodiesterase inhibitor and preparation method and applications thereof” (JINAN MEILUWEI BIOTECHNOLOGY CO., LTD., priority 2017, dated 2020)

Assay: Solubility test (Chinese Pharmacopoeia 2010 criteria)
Type: physicochemical
Settings: 25° C.±2° C.; for solubility in 95% ethanol (pharmacopoeia term) / solubility in water (pharmacopoeia term): observed within 30 minutes
Procedure: The regulations on solubility in the guide to the second volume of Chinese Pharmacopoeia 2010 edition are used as criteria.
Weigh samples ground to fine powder (sample B: the compound of formula A; sample C: the methanesulfonate polymorph of the compound of formula A prepared in Embodiment 1), put the samples into a certain volume of solvent at 25° C.±2° C., and vigorously shake the samples for 30 seconds every 5 minutes; observe the dissolution within 30 minutes, wherein if solute particles are not observed, the samples are completely dissolved.

**Q.** Which “amount of 95% ethanol in which 1 g of sample is dissolved” value does the source give for `CCCc1nn(C)c2c(=S)[nH]c(-c3cc(C(=S)N4CCN(C)CC4)ccc3OCC)nc12` [sample B, 5-[2-ethoxy-5-(4-methylpiperazin-1-ylthiocarbonyl)phenyl]-1-methyl-3-n-propyl-1,6-dihydro-pyrazolo[4,3-d]pyrimidin-7-thione] here?
**A.** > 10000 g

**Q.** What about the “solubility in 95% ethanol (pharmacopoeia term)” value of the same compound?
**A.** almost insoluble

**Q.** And the “amount of water in which 1 g of sample is dissolved” value?
**A.** > 10000 g

**Q.** And the “solubility in water (pharmacopoeia term)” value?
**A.** hardly soluble

**Q.** For `CCCc1nn(C)c2c(=S)[nH]c(-c3cc(C(=S)N4CCN(C)CC4)ccc3OCC)nc12` [sample C, 5-[2-ethoxy-5-(4-methylpiperazin-1-ylthiocarbonyl)phenyl]-1-methyl 3-n-propyl-1,6-dihydro-pyrazolo[4,3-d]pyrimidin-7-thione methanesulfonate polymorph], which “amount of 95% ethanol in which 1 g of sample is dissolved” value is on record?
**A.** ≤ 90 g

**Q.** And the “solubility in 95% ethanol (pharmacopoeia term)” value?
**A.** slightly soluble

**Q.** And the “amount of water in which 1 g of sample is dissolved” value?
**A.** ≤ 800 g

**Q.** And the “solubility in water (pharmacopoeia term)” value?
**A.** slightly soluble
